Reference: article PMC13598332, “Selective activation of tetrodotoxin-sensitive sodium channels by AaH-II drives arrhythmogenic late Na^+ current in the heart” (Europace, 2026)
Where two headings read alike, the source gives them in different places.

What was measured:
hNav1.6 = hNav1.6 (Homo sapiens, UniProt Q9UQD0); type: cell-based
isolated rat heart = assay: Ex vivo cardiac electrophysiological recordings (Langendorff, MEA); conditions: for increase in repolarization area of ventricular local field potential: mean ± SEM
Method: Eleven-week-old Wistar-Han rats were first heparinized (heparin sodium, 0.5 U/g i.p.) and then euthanized by i.p. injection of 140 mg/kg pentobarbital (Euthasol®). Hearts were quickly excised and immersed in a cold modified Krebs-Henseleit solution (in mM): 116 NaCl, 5 KCl, 1.1 MgSO4, 7 H2O, 0.35 NaH2PO4, 27 NaHCO3, 10 glucose, and pH 7.4. The aorta was cannulated, and the hearts were perfused on a Langendorff system with warm (36.5–37.5°C) and oxygenated (95% O2/5% CO2) Krebs-Henseleit solution supplemented with 1.8 mM CaCl2, 1 mM lactate, and 0.2 mM pyruvate (control solution) at a constant flow rate of 12 mL/min. Once connected to the Langendorff perfusion system, hearts were perfused with control solution for 10 min to stabilize their activities. Electrical activity of the upper part of the right ventricle was assessed using a 64-electrode array (0.2-mm electrode diameter; 0.36-mm interelectrode distance) connected to an EMS64-USB-1002 amplifier. Single-lead ECG was acquired to monitor global cardiac electrical activity. Data were sampled at 10 kHz per channel and acquired by EMapRecord5 (Mappinglab, Oxford, UK). Data were obtained at baseline (2 min before compound perfusion) and during AaH-II* perfusion for 10 min at various concentrations. Data were analysed using EMapScope5 (Mappinglab, Oxford, UK). Activation times were determined as the point of maximal negative slope. All activation times were related to the timing of the first detected waveform and then used to draw activation maps. An average of three complexes was used for activation time and conduction velocity analyses, while interbeat interval was measured as the average of 10 consecutive intervals. The index of inhomogeneity was calculated as previously described.[23] Arrhythmias were quantified over a period of 2 min in control and after peptide perfusion.

[1] = system: human iPS-derived cardiomyocytes; assay: Automated patch-clamp of Na+ current in human iPS-derived cardiomyocytes; type: cell-based
Method: The control hiPSC cell line (ITXi002-A; IRX5-Wt[16]; RRID:CVCL_B5QD) was generated from primary dermal fibroblasts and previously characterized.[17–19] hiPSCs were maintained at 37°C, 5% CO2, 21% O2 in StemMacs PSC-Brew XF human medium (Miltenyi Biotec, #130-127-865) on culture plates coated with 0.05 mg/mL Matrigel hESC-Qualified Matrix (Corning, #354277) in DMEM F12 (Gibco, #11320033). At 75% confluency, the cells were passaged using the Gentle Cell Dissociation Reagent (StemCell Technologies, #07174).
We generated right ventricular-like cardioids on 96-well low-attachment plates using the Schmidt et al. (2023) protocol.[20] At D15.5, cardioids were pooled, dissociated, and replated as a monolayer in MW12 plates (Falcon, #353047) coated with Matrigel (Corning, #354277) for automated patch-clamp, and as single cells in 35-mm Petri dishes (NUNC #055055) coated with Matrigel for manual patch-clamp. Immediately before patch-clamp recording, cardiomyocytes were single-cell dissociated using Accutase (Sigma, #A6964).
For human iPSC-derived cardiomyocytes recordings, cells were resuspended at 300 000 cells/mL in a solution composed of 50% culture media and 50% extracellular buffer containing (in mM) 140 NaCl, 4 KCl, 2 CaCl2, 1 MgCl2, 5 glucose, and 10 HEPES (pH 7.4, osmolarity 298 mOsm) supplemented with 5 µM nifedipine. Single-hole, low-resistance chips (3–5 MΩ) were used. The intracellular solution contained (in mM) 10 KCl, 110 KF, 10 NaCl, 1 MgCl2, 1 CaCl2, 10 Ethylene Glycol Tetra-acetic Acid (EGTA), and 10 HEPES (pH 7.2, osmolarity 280 mOsm). Currents were recorded and analysed as previously described for stable cell lines.

in vivo = conditions: Wistar-Han, rat, iv
hNav1.5 = hNav1.5 (Homo sapiens, UniProt Q14524); type: cell-based; conditions: for Na+ entry through hNav1.5 in action potential-mimicking protocol: 10 μM TTX-subtracted current
Chain of hNav1.5 (Q14524 other isoform, or with tags, fused parts or gaps): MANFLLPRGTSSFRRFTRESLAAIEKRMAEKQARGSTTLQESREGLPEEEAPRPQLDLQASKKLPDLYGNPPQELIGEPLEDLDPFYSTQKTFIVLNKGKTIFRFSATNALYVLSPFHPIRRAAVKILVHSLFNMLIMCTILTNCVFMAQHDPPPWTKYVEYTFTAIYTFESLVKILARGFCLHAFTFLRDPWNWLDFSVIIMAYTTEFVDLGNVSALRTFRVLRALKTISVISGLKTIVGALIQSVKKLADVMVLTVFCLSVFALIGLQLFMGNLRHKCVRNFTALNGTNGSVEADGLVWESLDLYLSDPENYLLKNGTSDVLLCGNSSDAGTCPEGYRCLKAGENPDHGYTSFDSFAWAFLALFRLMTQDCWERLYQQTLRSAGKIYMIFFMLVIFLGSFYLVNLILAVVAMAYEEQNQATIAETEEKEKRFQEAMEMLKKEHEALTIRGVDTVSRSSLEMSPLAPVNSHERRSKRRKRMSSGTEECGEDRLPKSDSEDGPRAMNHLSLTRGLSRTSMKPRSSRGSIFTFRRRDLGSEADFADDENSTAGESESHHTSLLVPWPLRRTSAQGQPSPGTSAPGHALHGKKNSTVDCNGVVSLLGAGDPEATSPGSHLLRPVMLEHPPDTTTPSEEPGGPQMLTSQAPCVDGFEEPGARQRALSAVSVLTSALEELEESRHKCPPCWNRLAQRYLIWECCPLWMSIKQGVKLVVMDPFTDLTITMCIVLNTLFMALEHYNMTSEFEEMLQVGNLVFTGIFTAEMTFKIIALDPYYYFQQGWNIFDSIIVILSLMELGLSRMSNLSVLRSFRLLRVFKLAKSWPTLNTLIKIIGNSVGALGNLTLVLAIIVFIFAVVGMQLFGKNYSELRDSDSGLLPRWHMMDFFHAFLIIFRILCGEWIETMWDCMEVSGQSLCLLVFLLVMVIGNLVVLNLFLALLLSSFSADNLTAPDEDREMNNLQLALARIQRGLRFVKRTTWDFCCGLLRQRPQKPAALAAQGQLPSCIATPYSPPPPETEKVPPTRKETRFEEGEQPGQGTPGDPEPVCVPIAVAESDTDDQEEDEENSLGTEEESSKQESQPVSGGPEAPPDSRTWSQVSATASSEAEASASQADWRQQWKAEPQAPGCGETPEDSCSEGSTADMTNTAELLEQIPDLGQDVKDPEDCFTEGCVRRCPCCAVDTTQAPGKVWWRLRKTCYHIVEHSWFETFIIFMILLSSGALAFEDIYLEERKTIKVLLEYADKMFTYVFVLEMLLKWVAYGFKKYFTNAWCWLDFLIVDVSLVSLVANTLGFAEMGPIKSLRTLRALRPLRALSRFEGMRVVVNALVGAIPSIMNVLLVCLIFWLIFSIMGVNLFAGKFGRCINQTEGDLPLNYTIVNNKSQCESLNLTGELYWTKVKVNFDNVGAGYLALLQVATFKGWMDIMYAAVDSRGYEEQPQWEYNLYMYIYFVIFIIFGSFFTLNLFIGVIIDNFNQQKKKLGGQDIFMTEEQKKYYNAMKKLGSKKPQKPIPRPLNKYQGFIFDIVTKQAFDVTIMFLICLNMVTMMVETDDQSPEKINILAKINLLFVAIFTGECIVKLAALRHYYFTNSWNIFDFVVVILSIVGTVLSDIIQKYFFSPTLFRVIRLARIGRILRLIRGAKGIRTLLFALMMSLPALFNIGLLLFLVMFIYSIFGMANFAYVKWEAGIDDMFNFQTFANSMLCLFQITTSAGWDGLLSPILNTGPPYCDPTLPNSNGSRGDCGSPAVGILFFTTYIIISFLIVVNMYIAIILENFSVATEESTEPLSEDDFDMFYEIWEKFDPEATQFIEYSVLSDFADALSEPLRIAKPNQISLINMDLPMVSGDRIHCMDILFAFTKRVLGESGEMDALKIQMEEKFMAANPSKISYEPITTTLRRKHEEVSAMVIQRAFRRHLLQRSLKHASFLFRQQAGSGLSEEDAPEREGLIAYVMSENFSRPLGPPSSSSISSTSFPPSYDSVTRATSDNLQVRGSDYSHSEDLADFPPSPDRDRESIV

[2] = system: human iPS-derived ventricular cardiomyocytes; type: cell-based; conditions: 0.1 nM; dynamic clamp, 1.43 Hz, 35–37°C; n = 10

Chain of hNav1.6 (Q9UQD0 other isoform, or with tags, fused parts or gaps): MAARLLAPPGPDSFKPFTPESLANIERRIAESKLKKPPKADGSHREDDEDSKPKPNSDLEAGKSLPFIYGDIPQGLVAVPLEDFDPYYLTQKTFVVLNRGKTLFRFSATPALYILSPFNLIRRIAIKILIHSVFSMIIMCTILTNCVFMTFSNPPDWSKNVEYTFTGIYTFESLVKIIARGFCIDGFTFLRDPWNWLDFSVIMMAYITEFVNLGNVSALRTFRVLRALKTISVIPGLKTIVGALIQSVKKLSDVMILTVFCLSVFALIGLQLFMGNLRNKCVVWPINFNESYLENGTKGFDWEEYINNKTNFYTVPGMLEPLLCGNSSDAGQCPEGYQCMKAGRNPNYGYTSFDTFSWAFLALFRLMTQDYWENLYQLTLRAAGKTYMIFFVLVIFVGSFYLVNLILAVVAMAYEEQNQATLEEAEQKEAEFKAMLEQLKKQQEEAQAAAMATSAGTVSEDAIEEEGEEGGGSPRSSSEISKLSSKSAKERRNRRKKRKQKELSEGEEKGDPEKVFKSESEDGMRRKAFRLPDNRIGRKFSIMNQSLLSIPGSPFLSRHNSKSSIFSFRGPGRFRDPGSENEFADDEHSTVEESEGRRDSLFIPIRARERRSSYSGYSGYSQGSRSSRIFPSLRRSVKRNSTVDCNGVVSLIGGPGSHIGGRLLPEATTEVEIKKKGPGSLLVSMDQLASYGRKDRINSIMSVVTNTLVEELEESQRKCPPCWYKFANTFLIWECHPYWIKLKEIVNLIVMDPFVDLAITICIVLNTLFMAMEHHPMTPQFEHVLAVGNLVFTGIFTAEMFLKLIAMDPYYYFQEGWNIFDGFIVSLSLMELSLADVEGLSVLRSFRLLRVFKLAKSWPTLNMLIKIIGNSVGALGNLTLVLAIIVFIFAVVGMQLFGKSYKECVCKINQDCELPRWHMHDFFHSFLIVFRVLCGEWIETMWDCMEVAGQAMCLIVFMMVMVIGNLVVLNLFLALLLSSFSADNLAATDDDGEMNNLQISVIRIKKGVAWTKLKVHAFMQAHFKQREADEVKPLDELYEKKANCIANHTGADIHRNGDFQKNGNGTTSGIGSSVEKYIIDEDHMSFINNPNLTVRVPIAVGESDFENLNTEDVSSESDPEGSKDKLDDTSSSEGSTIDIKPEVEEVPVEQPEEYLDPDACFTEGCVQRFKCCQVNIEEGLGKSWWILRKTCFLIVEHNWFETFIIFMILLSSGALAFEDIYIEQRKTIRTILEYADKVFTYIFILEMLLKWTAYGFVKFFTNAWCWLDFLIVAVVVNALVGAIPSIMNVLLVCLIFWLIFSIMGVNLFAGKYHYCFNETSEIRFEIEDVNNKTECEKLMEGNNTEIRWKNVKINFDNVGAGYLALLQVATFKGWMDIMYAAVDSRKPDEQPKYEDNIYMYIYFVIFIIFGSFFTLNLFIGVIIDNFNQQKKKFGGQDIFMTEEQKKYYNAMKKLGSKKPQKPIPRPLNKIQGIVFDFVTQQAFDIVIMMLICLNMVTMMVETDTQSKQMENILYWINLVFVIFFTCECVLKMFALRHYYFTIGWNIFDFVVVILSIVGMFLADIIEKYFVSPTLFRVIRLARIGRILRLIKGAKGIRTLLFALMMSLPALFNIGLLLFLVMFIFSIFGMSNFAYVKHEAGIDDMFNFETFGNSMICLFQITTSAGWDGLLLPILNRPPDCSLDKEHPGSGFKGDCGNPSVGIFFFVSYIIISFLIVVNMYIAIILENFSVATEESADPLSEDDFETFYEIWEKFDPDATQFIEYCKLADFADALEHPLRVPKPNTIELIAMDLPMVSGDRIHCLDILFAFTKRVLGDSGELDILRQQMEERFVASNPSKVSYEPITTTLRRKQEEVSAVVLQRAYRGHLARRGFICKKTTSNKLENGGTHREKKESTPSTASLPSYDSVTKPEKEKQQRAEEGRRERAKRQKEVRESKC

CC[C@H](C)[C@H](NC(=O)[C@H](Cc1ccc(O)cc1)NC(=O)CNC(=O)[C@H](CC(=O)O)NC(=O)[C@H](CCCCN)NC(=O)[C@@H](N)C(C)C)C(=O)N[C@H](C(=O)N[C@@H](CC(=O)O)C(=O)N[C@@H](CC(=O)O)C(=O)N[C@H](C(=O)N[C@@H](CC(N)=O)C(=O)N[C@H]1CSSC[C@@H](C(=O)N[C@@H](Cc2c[nH]cn2)C(N)=O)NC(=O)[C@H](CCCCN)NC(=O)CNC(=O)[C@@H]2CCCN2C(=O)CNC(=O)[C@H](CCCCN)NC(=O)[C@H]([C@@H](C)O)NC(=O)[C@H](CCCNC(=N)N)NC(=O)[C@H](C(C)C)NC(=O)[C@H](Cc2c[nH]cn2)NC(=O)[C@H](CC(=O)O)NC(=O)[C@@H]2CCCN2C(=O)[C@H](CC(C)C)NC(=O)[C@H](CCCCN)NC(=O)[C@H](Cc2ccc(O)cc2)NC(=O)[C@@H]2CSSC[C@@H]3NC(=O)[C@H](CCC(=O)O)NC(=O)[C@H](CCC(=O)O)NC(=O)[C@H](CC(N)=O)NC(=O)[C@@H]4CSSC[C@H](NC(=O)[C@H](C)NC(=O)[C@H](CC(N)=O)NC(=O)CNC(=O)[C@H](Cc5ccc(O)cc5)NC(=O)[C@@H]5CCCN5C(=O)[C@H](CO)NC(=O)[C@H](C)NC(=O)[C@H](Cc5c[nH]c6ccccc56)NC(=O)[C@H](CCC(N)=O)NC(=O)[C@H](CSSC[C@H](NC(=O)[C@H](Cc5ccccc5)NC(=O)[C@H](Cc5ccc(O)cc5)NC(=O)[C@H]([C@@H](C)O)NC1=O)C(=O)NCC(=O)N[C@@H](CCCNC(=N)N)C(=O)N[C@@H](CC(N)=O)C(=O)N[C@@H](C)C(=O)N[C@@H](Cc1ccc(O)cc1)C(=O)N4)NC(=O)[C@H](Cc1ccc(O)cc1)NC(=O)CNC(=O)[C@H](CO)NC(=O)[C@H](CCC(=O)O)NC(=O)CNC(=O)[C@H](CCCCN)NC(=O)[C@H](CC(C)C)NC(=O)[C@H](CCCCN)NC(=O)[C@H]([C@@H](C)O)NC3=O)C(=O)N[C@@H](Cc1ccc(O)cc1)C(=O)N2)C(C)C)C(C)C [AaH-II*]
activation of hNav1.6 current incl. INaL after TTX block (hNav1.6; 10 nM AaH-II* applied after 100 nM TTX): failed to activate any form of current
INaL after 1 s depolarization (hNav1.6; hNav1.6, 10 nM): maintained INaL after 1 s pulse
shift in voltage-dependence of activation (hNav1.6; hNav1.6, 10 nM): large AaH-II*-triggered hyperpolarizing shift in voltage-dependence of activation
concentration at which INaL is triggered / becomes noticeable (hNav1.6; hNav1.6, representative traces, test 0 mV): 0.1 nM
increase in repolarization area of ventricular local field potential (isolated rat heart; 0.1 nM): 40.3 ± 8.0%
arrhythmogenic hearts (hearts with arrhythmias / hearts) (isolated rat heart; 1 nM AaH-II*): 5/7
increase in repolarization area of ventricular local field potential (isolated rat heart; 1 nM): 140.6 ± 43.0%
activation time (isolated rat heart; 10 nM): significantly increases activation time
arrhythmogenic hearts (hearts with arrhythmias / hearts) (isolated rat heart; 10 nM AaH-II*): 6/7
ventricular bradycardia (rhythm reduction) (isolated rat heart; 10 nM, MEA on right ventricle, 10 min perfusion): 1.9 fold
cardiac conduction in the right ventricle (isolated rat heart; 0.1 and 1 nM): do not affect conduction
ventricular interbeat interval (isolated rat heart; 0.1 and 1 nM, MEA on right ventricle, 10 min perfusion): no effect on the interbeat interval
INaL in human iPS-derived cardiomyocytes ([1]; 0.1 nM AaH-II*): triggered a characteristic INaL
INaL in human iPS-derived cardiomyocytes ([1]; 10 nM AaH-II*): a greater INaL could be recorded
level at time molar (in vivo; 3 ug/kg): < 0.1 nM
level at time molar (in vivo; 15 ug/kg): 2.4 ± 0.4 nM
level at time molar (in vivo; 30 ug/kg): 4.3 ± 0.6 nM
Na+ entry through hNav1.5 in action potential-mimicking protocol (hNav1.5; 0.1 nM): indistinguishable from the control condition
Na+ entry through hNav1.5 in action potential-mimicking protocol (hNav1.5; 10 nM): capable of generating a measurable Na^+ current
INaL after 1 s depolarization (hNav1.5; hNav1.5, 10 nM): absence of AaH-II*-mediated INaL after 1 s depolarization
shift in voltage-dependence of activation (hNav1.5; hNav1.5, 10 nM): lack of shift in the voltage-dependence of activation and inactivation
maximal INaL stimulation (maximal AUC) (hNav1.5; hNav1.5, highest effective AaH-II* concentration): ~19 fold
concentration at which INaL is triggered / becomes noticeable (hNav1.5; hNav1.5, representative traces, test 0 mV): 0.3 nM
AP duration APD20, APD50, APD90 [2]: increase the AP duration
maximal diastolic potential, AP amplitude, dV/dtmax [2]: not significantly affected
